From the NIST ThermoML archive (doi:10.1016/j.tca.2012.01.013)

Assay: xn = mol fraction of the nth substance listed
Details: 101 kPa, Liquid, Vibrating tube method

COC(=O)c1ccccc1C(=O)OC [dimethyl 1,2-benzenedicarboxylate] + CCCCO
mass density [kg/m3]
Details	x1 = 0.0997	x1 = 0.1998	x1 = 0.2994	x1 = 0.3999	x1 = 0.5	x1 = 0.5985	x1 = 0.7001	x1 = 0.8016	x1 = 0.9002	x1 = 1
288.15 K	877.193	932.375	980.153	1022.54	1059.92	1092.78	1123.06	1150.29	1174.24	1196.26
293.15 K	873.146	928.143	975.792	1018.08	1055.37	1088.17	1118.42	1145.63	1169.57	1191.59
298.15 K	869.077	923.892	971.414	1013.6	1050.83	1083.57	1113.78	1140.96	1164.91	1186.93
303.15 K	864.981	919.619	967.016	1009.11	1046.26	1078.96	1109.14	1136.31	1160.25	1182.28
308.15 K	860.864	915.319	962.593	1004.6	1041.69	1074.34	1104.49	1131.65	1155.59	1177.62
313.15 K	856.701	910.989	958.146	1000.06	1037.11	1069.7	1099.84	1126.98	1150.93	1172.97
318.15 K	852.519	906.628	953.674	995.51	1032.5	1065.06	1095.18	1122.32	1146.27	1168.32
323.15 K	848.279	902.232	949.172	990.935	1027.87	1060.4	1090.51	1117.65	1141.61	1163.67
